Bounds are passed on as bounds.

This assay relates to ALP in normal human articular chondrocytes (NHACs). Put plainly: Alkaline Phosphatase (ALP) activity assay (staining and quantitation) in NHACs, prevention of chondrocyte hypertrophy. The format is cell-based. The settings on record: Chondrocyte, 288 h, human IL-1 beta 10 ng/mL, 12 days; for IC50: Fast Blue RR staining, high content imaging, read-out: ALP in NHAC IC50; for Emax: value in parentheses, read-out: ALP in NHAC (% Efficacy). Put shortly:
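Hypertrophy readout: ALP staining (Fast Blue RR with naphthol AS-MX phosphate) plus Hoechst, imaged at 561 nm and/or quantified by high-content multiwavelength cell scoring. Before staining, NHACs (7,500/well, DMEM/10% FBS) were exposed to compound for 5 h, then cultured with 10 ng/mL IL-1β for 12 days at 37 °C.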

Regarding `Cc1cc(NC(=O)[C@@H]2[C@@H](c3cn(C(C)C)nc3C(F)(F)F)[C@H]3O[C@@H]2C[C@@H]3O)cc(C(F)(F)F)c1` (racemic) [Example 88, rac-(1R,2R,3S,4R,5S)-5-hydroxy-3-(1-isopropyl-3-(trifluoromethyl)-1H-pyrazol-4-yl)-N-(3-methyl-5-(trifluoromethyl)phenyl)-7-oxabicyclo[2.2.1]heptane-2-carboxamide], the IC50 is greater than 30 µM and the Emax is 20%.

With `Cn1nc(C(F)(F)F)cc1[C@H]1[C@H]2O[C@H](C[C@@H]2O)[C@@H]1C(=O)Nc1cc(C(F)(F)F)ccc1C#N` (racemic) [Example 72, rac-(1R,2R,3S,4R,5S)—N-(2-cyano-5-(trifluoromethyl)phenyl)-5-hydroxy-3-(1-methyl-3-(trifluoromethyl)-1H-pyrazol-5-yl)-7-oxabicyclo[2.2.1]heptane-2-carboxamide], the IC50 was found to be 2.1 µM and the Emax was 72%.

Consider `O=C(Nc1cc(C(F)(F)F)cc(C2CC2)n1)[C@@H]1[C@@H](c2cccc(C(F)(F)F)c2)[C@H]2O[C@@H]1C[C@@H]2O` (racemic) [Example 7, rac-(1R,2R,3S,4R 5S)—N-(6-cyclopropyl-4-(trifluoromethyl)pyridin-2-yl)-5-hydroxy-3-(3-(trifluoromethyl)phenyl)-7-oxabicyclo[2.2.1]heptane-2-carboxamide], for which the IC50 was greater than 30 µM and the Emax was found to be 12%.

For the compound `Cc1cc(C(F)(F)F)cc(NC(=O)[C@@H]2[C@@H](c3cn(C)nc3C(F)(F)F)[C@H]3O[C@@H]2C[C@@H]3O)n1` (racemic) [Example 41, rac-(1R,2R,3S,4R,5S)-5-hydroxy-3-(1-methyl-3-(trifluoromethyl)-1H-pyrazol-4-yl)-N-(6-methyl-4-(trifluoromethyl)pyridin-2-yl)-7-oxabicyclo[2.2.1]heptane-2-carboxamide], the IC50 was 6.3 µM and the Emax worked out at 61%.

On to `O=C(Nc1cccc(C(F)(F)F)c1)[C@@H]1[C@@H](c2ccnc(F)c2)[C@H]2O[C@@H]1C[C@@H]2O` (racemic) [Example 80, rac-(1R 2R,3S,4R,5S)-3-(2-fluoropyridin-4-yl)-5-hydroxy-N-(3-(trifluoromethyl)phenyl)-7-oxabicyclo[2.2.1]heptane-2-carboxamide], for which the IC50 was 23 µM and the Emax was found to be 34%.

For `Cc1cc(NC(=O)[C@@H]2[C@@H](c3cn(C)nc3C(F)(F)F)[C@H]3O[C@@H]2C[C@@H]3O)cc(C(F)(F)F)c1` (racemic) [Example 30, rac-(1R,2R,3S,4R,5)-5-hydroxy-3-(1-methyl-3-(trifluoromethyl)-1H-pyrazol-4-yl)-N-(3-methyl-5-(trifluoromethyl)phenyl)-7-oxabicyclo[2.2.1]heptane-2-carboxamide], the IC50 came out at 7.2 µM and the Emax was 81%.

In the case of `N#Cc1ccc(NC(=O)[C@@H]2[C@@H](c3cccc(C(F)(F)F)c3)[C@H]3O[C@@H]2C[C@@H]3O)cc1C(F)(F)F` (racemic) [Example 46, rac-(1R,2R,3S,4R,5S)—N-(4-cyano-3-trifluoromethyl)phenyl)-5-hydroxy-3-(3-(trifluoromethyl)phenyl)-7-oxabicyclo[2.2.1]heptane-2-carboxamide], the half-maximal inhibitory concentration (IC50) was 14 µM and the Emax was determined as 50%.

Consider `Cc1cc(NC(=O)[C@@H]2[C@@H](c3cccc(C(F)(F)F)c3)[C@H]3O[C@@H]2C[C@@H]3O)cnc1C(F)(F)F` (racemic) [Example 28, rac-(1R,2R,3S,4R,5S)-5-hydroxy-N-(5-methyl-6-(trifluoromethyl)pyridin-3-yl)-3-(3-(trifluoromethyl)phenyl)-7-oxabicyclo[2.2.1]heptane-2-carboxamide], for which the IC50 worked out at 6 µM and the Emax was determined as 98%.

Consider `O=C(Nc1ccc(C(F)(F)F)cc1)[C@@H]1[C@@H](c2ccnc(C(F)(F)F)c2)[C@H]2O[C@@H]1C[C@@H]2O` (racemic) [Example 66, rac-(1R,2R,3S,4R,5S)-5-hydroxy-N-(4-(trifluoromethyl)phenyl)-3-(2-(trifluoromethyl)pyridin-4-yl)-7-oxabicyclo[2.2.1]heptane-2-carboxamide], for which the 50% inhibitory concentration (IC50) was 15 µM and the Emax was determined as 66%.

Turning to `Cn1cc([C@H]2[C@H]3O[C@H](C[C@@H]3O)[C@@H]2C(=O)Nc2ccc(C(F)(F)F)c(Cl)c2)c(C(F)(F)F)n1` (racemic) [Example 58, rac-(1R,2R,3S,4R,5S)—N-(3-chloro-4-(trifluoromethyl)phenyl)-5-hydroxy-3-(1-methyl-3-(trifluoromethyl)-1H-pyrazol-4-yl)-7-oxabicyclo[2.2.1]heptane-2-carboxamide], the IC50 was found to be 10 µM and the Emax is 102%.

For `Cn1nc(C(F)(F)F)cc1[C@H]1[C@H]2O[C@H](C[C@@H]2O)[C@@H]1C(=O)Nc1cccc(C(F)(F)F)c1` (racemic) [Example 61, rac-(1R,2R,3S,4R,5S)-5-hydroxy-3-(1-methyl-3-(trifluoromethyl)-1H-pyrazol-5-yl)-N-(3-(trifluoromethyl)phenyl)-7-oxabicyclo[2.2.1]heptane-2-carboxamide], the IC50 is 21 µM and the Emax is 46%.

For the compound `O=C(Nc1cc(C(F)(F)F)cc(Cl)n1)[C@@H]1[C@@H](c2cccc(C(F)(F)F)c2)[C@H]2O[C@@H]1C[C@@H]2O` (racemic) [Example 5, rac-(1R,2R,3S,4R,5S)—N-(6-chloro-4-(trifluoromethyl)pyridin-2-yl)-5-hydroxy-3-(3-(trifluoromethyl)phenyl)-7-oxabicyclo[2.2.1]heptane-2-carboxamide], the half-maximal inhibitory concentration (IC50) stood at 27 µM and the Emax is 82%.

For the compound `Cn1cc([C@H]2[C@H]3O[C@H](C[C@@H]3O)[C@@H]2C(=O)Nc2cc(C(F)(F)F)ccc2F)c(C(F)(F)F)n1` (racemic) [Example 52, rac-(1R,2R,3S,4R,5S)—N-(2-fluoro-5-(trifluoromethyl)phenyl)-5-hydroxy-3-(1-methyl-3-(trifluoromethyl)-1H-pyrazol-4-yl)-7-oxabicyclo[2.2.1]heptane-2-carboxamide], the concentration for half-maximal inhibition (IC50) worked out at 4.2 µM and the Emax is 73%.

On to `O=C(Nc1cc(Cl)cc(C(F)(F)F)c1)[C@@H]1[C@@H](c2cccc(C(F)(F)F)c2)[C@H]2O[C@@H]1C[C@@H]2O` (racemic) [Example 19, rac-(1R,2R,3S,4R,5)-N-(3-chloro-5-(trifluoromethyl)phenyl)-5-hydroxy-3-(3-(trifluoromethyl)phenyl)-7-oxabicyclo[2.2.1]heptane-2-carboxamide], for which the half-inhibitory concentration (IC50) was determined as 11 µM and the Emax stood at 102%.

On to `Cc1ccc(C(F)(F)F)cc1NC(=O)[C@@H]1[C@@H](c2cccc(C(F)(F)F)c2)[C@H]2O[C@@H]1C[C@@H]2O` (racemic) [Example 14, rac-(1R,2R,3S,4R,5S)-5-hydroxy-N-(2-methyl-5-(trifluoromethyl)phenyl)-3-(3-(trifluoromethyl)phenyl)-7-oxabicyclo[2.2.1]heptane-2-carboxamide], for which the IC50 is 13 µM and the Emax was determined as 78%.

`O=C(Nc1cccc(C(F)(F)F)c1)[C@@H]1[C@@H](c2cnc(C(F)(F)F)nc2)[C@H]2O[C@@H]1C[C@@H]2O` (racemic) [Example 83, rac-(1R,2R,3S,4R,5S)-5-hydroxy-N-(3-(trifluoromethyl)phenyl)-3-(2-(trifluoromethyl)pyrimidin-5-yl)-7-oxabicyclo[2.2.1]heptane-2-carboxamide]: the IC50 was 24 µM and the Emax was determined as 43%.

Regarding `Cc1ccc(C(F)(F)F)cc1NC(=O)[C@@H]1[C@@H](c2cn(C)nc2C(F)(F)F)[C@H]2O[C@@H]1C[C@@H]2O` (racemic) [Example 54, rac-(1R,2R,3S,4R,5S)-5-hydroxy-3-(1-methyl-3-(trifluoromethyl)-1H-pyrazol-4-yl)-N-(2-methyl-5-(trifluoromethyl)phenyl)-7-oxabicyclo[2.2.1]heptane-2-carboxamide], the IC50 amounted to 4.1 µM and the Emax amounted to 52%.

Turning to `CCOc1cc(C(F)(F)F)cc(NC(=O)[C@@H]2[C@@H](c3cn(C)nc3C(F)(F)F)[C@H]3O[C@@H]2C[C@@H]3O)n1` (racemic) [Example 39, rac-(1R,2R,3S,4R,5S)—N-(6-ethoxy-4-(trifluoromethyl)pyridin-2-yl)-5-hydroxy-3-(1-methyl-3-(trifluoromethyl)-1H-pyrazol-4-yl)-7-oxabicyclo[2.2.1]heptane-2-carboxamide], the IC50 is 4 µM and the Emax turned out to be 64%.

With `N#Cc1cc(NC(=O)[C@@H]2[C@@H](c3cccc(C(F)(F)F)c3)[C@H]3O[C@@H]2C[C@@H]3O)cc(C(F)(F)F)c1` (racemic) [Example 47, rac-(1R,2R,3S,4R,5S)—N-(3-cyano-5-(trifluoromethyl)phenyl)-5-hydroxy-3-(3-(trifluoromethyl)phenyl)-7-oxabicyclo[2.2.1]heptane-2-carboxamide], the IC50 worked out at 5.5 µM and the Emax came out at 87%.

As to `O=C(Nc1cccc(C(F)(F)F)c1)[C@@H]1[C@@H](c2cncc(C(F)(F)F)c2)[C@H]2O[C@@H]1C[C@@H]2O` (racemic) [Example 81, rac-(1R,2R,3S,4R,5S)-5-hydroxy-N-(3-(trifluoromethyl)phenyl)-3-(5-(trifluoromethyl)pyridin-3-yl)-7-oxabicyclo[2.2.1]heptane-2-carboxamide], the IC50 is 19 µM and the Emax is 59%.

Take `Cn1nc(C(F)(F)F)cc1[C@H]1[C@H]2O[C@H](C[C@@H]2O)[C@@H]1C(=O)Nc1ccc(C(F)(F)F)c(Cl)c1` (racemic) [Example 73, rac-(1R,2R,3S,4R,5)-N-(3-chloro-4-trifluoromethyl)phenyl)-5-hydroxy-3-(1-methyl-3-(trifluoromethyl)-1H-pyrazol-5-yl)-7-oxabicyclo[2.2.1]heptane-2-carboxamide]: the half-inhibitory concentration (IC50) is 7.1 µM and the Emax was determined as 105%.

One may read the IC50 as the concentration needed to halve the response being measured.

Source of the values: patent US12257243B2, “5-hydroxy-7-oxabicyclo[2.2.1]heptane-2-carboxamide derivatives for inducing chondrogenesis for treating joint damage” (NOVARTIS AG, priority 2018, dated 2025).
